Test results as given in US9861702B2, “Lipid-conjugated rhamnose for immune system recruitment and oncotherapy” (WISCONSIN ALUMNI RESEARCH FOUNDATION, priority 2012, dated 2018).
Entries after “also recorded” stand apart in the source; their conditions may differ. Like-named read-outs stand apart in the source and are kept apart here. Values belong to the compound of their own block, whether it stands above or below them.

What was measured:
[1] = system: complement component C4d; experiment: Activation of complement, deposition of complement component C4d on treated M21 cells, flow cytometry; assay type: cell-based; details: 25% normal human serum, 1 hour at 37° C.
Procedure: FIG. 6 is a graph showing the results of flow cytometry measurements of M21 cells treated with the indicated rhamnose-lipid conjugates, or with an antibody known to activate complement (14.18) exposed to normal human serum and subsequently stained for C4d, a marker of complement activation.
Rhamnose-lipid conjugates 4 (Rha1-DPoPE) and 51 (Rha2-DPoPE) were synthesized as described in Example 1. The ability of these compounds to activate complement was tested by looking for deposition of complement component C4d. M21 cells treated with buffer, rha1-DPoPE, rha2-DPoPE, or a control antibody known to activate complement (14.18) were exposed to 25% normal human serum for 1 hour at 37° C., washed and stained for C4d, and analyzed by flow cytometry. […] The 14.18 antibody employed was the Ch14.18-IL2 fusion protein [Gillies, S D; Lan, Y; Lo, K M; Super, M; Wesolowski, J (1999) “Improving the efficacy of antibody-interleukin 2 fusion proteins by reducing their interaction with Fc receptors.” Cancer Research vol. 59 (9) p. 2159-66.]

[2] = system: M21 cells; assay type: cell-based; details: normal donor serum, FIG. 9
Procedure: The requisite amount of chloroform solution containing each lipid compound was measured into a glass vial. Chloroform was removed by blowing argon into the vial until all solvent was evaporated leaving a lipid film on the glass. The lipid film was hydrated with sufficient buffer (HBSS with 1% BSA) to yield a 0.1 mM solution for 30 minutes at room temperature. The vials were then sonicated in a water bath sonicator to cause the lipids to sheet off of the glass. It is believed that the lipids form vesicle structures in the buffer.
M21 cells were plated in a 12-well plate and allowed to grow over night. The next morning, the growth medium was removed and replaced with 0.5 mL of buffer (control) or lipid suspension. Cells were incubated in contact with lipids for 1 hour at 37° C. to allow for lipid insertion. The lipid suspension was then aspirated and cells were striped from the plate with 1 mM EDTA in PBS pH 7.4. The EDTA/cell suspensions were diluted ˜1:1 with HBSS/BSA buffer, spun down and resuspended at 500,000 cells mL^−1. Cell samples where CD55 and CD59 were to remain functional were diluted 1:1 in HBSS/BSA buffer. Cell samples in which complement inhibitory factors were to be blocked were diluted 1:1 with HBSS/BSA containing 20 μg/mL of each blocking antibody (anti-CD55: clone 143-30 from Southern Biotech, anti-CD59: clone MEM-43 from Novus Biologicals) for a final concentration of 10 μg/mL of each antibody.
Cell suspensions (50 μL) were added to an opaque white 96-well plate in sextuplicate. […] (See plate illustration FIG. 7.) The plate was incubated at 37° C. for two hours to allow for complement activation and cell killing. After 2 hours, the plate was removed from the incubator and allowed to come to room temperature. […] Luminescence was read on a Tecan M1000 plate reader.
Luminescence values were averaged for each set of triplicate wells. Since luminescence correlates to viable cells and the heat killed serum wells provide a measure of non-specific cell death, the fraction of viable cells for each condition is calculated as (avg. luminescencenormal serum)/(avg. luminescenceheat killed serum). […]
FIG. 9 is a graph presenting results in terms of % viable cells for an experiment conducted with M21 cells as noted above which compared treatment of cells with lipid alone serum alone (negative control) (DPoPE), lipid+addition of CD55 and CD59 blocking antibodies, Rha2-lipid 51, Rha2-lipid 51+CD55 and CD59 blocking antibodies, 14.18-IL2 antibody (positive control), and 14.18-IL@antibody+CD55 and CD59 blocking antibodies. […] Cell Titer-Glo® assay (Promega) was used to measure living cells, Viability=(luminescence in wells treated with normal serum)/(luminescence of wells treated with heat inactivated serum).

[3] = system: M21 cells; experiment: Chromium-51 release assay (CDC / ADCC); assay type: cell-based
Procedure: Experiments were performed using the art-recognized Chromium-51 (^51Cr) release assay to assess if Rha2-lipid conjugate 51 was capable of activating cellular responses ADCC.
M21 cells were treated with lipid as described in Example 6. Target cells are labeled with ^51Cr and the release of label is a measure of cell cytolysis. In this case, the cells were contacted with Na^51Cr label overnight which is somewhat longer than is typically employed in the assay.
This confirms results from Example 6 that Rha2-DPoPE was able to mediate CDC. Peripheral blood mononuclear cells (PBMCs) include immune effector cells some of which express CD16, the most important class of which is natural killer cells.

[4] = system: M21 cells; experiment: Fluorescent lipid insertion levels, quantitative flow cytometry with calibration beads; assay type: cell-based
From the text: FIG. 5 is a graph showing the results of flow cytometry measurements to assess the levels of insertion of fluorescent lipid conjugates into M21 cells. See Example 4 and Scheme 6 for details. Under the treatment conditions used, insertion levels of approximately 3×10^6 lipids per cell was achieved. All three fluorescent labeled lipids inserted robustly into the cell membrane.
To estimate lipid insertion levels into model cells, three fluorescent lipid derivatives were synthesized: 101 an Alexa-Fluor® 488 dye conjugated to cholesterol, 102 Alexa-Fluor® 488 dye (Life Technologies) conjugated to POPE and 103 an Alexa-Fluor® 488 dye conjugated to DPoPE. M21 cells were treated with these lipids and assessed by quantitative flow cytometry using calibration beads to determine the number of fluorophores per cell. The results are illustrated in FIG. 5.

[5] = system: antibodies in human serum; experiment: Stability of antigen-antibody complexes in serum, SPR loss of response units over 1 hour; assay type: binding; details: over one hour, corrected RU
Procedure: FIG. 3 also includes a Table showing percentage loss calculated as (RUT2)/RuT1. All RU were corrected by reference subtraction.
The relative stability of antigen-antibody complexes for DNP, αGal and Rha in serum was assessed by evaluating RU (corrected RU) as a function of time (over 1 hour). FIG. 3 illustrates the decay of RU with time for antigen-antibody complexes for the three antigens. Due to the complexity of these systems, exact kinetic parameters could not be determined; however the loss of response units over time provides an estimate rank ordering of dissociation rates and complex longevity.

[6] = system: M21 cells; experiment: DNP-lipid insertion into cell membranes, anti-DNP staining, flow cytometry; assay type: cell-based; details: M21 cells treated with DNP-lipid, stained with anti-DNP
From the text: FIG. 4 is a graph showing the results of flow cytometry measurement of M21 cells treated with or without DNP-lipid and stained with anti-DNP. DNP-lipid 100 (Avanti Polar Lipids, Alabaster, Ala.) was used for the experiment.
As an initial assessment of antigen-lipid insertion into cell membranes, a hapten-lipid conjugate, DNP-lipid (100, a dipalmitoleoyl phosphatidylethanolamine-DNP conjugate) and anti-DNP-antibody were used to determine if (1) lipids would insert into model M21 cell line and (2) if the antigen headgroups of the antigen-lipid conjugates would remain accessible to antibodies. M21 cells treated with the DNP-lipid followed by staining with anti-DNP were analyzed by flow cytometry (FIG. 4).

[7] = system: antibodies in human serum; experiment: Biosensor (SPR) analysis of antibody levels in human serum against immobilized biotinylated antigens; assay type: binding; details: 10% serum, after 5 minutes of serum exposure, biotinylated antigen on streptavidin chip
From the text: Biosensor analysis was used to evaluate levels of antibodies in human serum. Surface plasmon resonance (SPR) is an information-rich technique requiring only small amounts of material, and surfaces with immobilized compounds can be regenerated and used multiple times. Although this technique is most often associated with determination of kinetic parameters, it is also useful for rank ordering interactions with ligands and antibody characterization, and is compatible with serum. […] The biotinylated antigens were immobilized on streptavidin-coated sensor chips along with a biotinylated control peptide in a reference channel. Serum was collected from healthy volunteer donors under IRB-approved Human Subjects minimal risk protocol M-2005-1282 at the University of Wisconsin-Madison. To limit bulk refractive index changes and keep signal within the instrument's detection range, solutions of 10% serum were flowed across the chip, contacting antigens in this order: […] As a measure of antibody prevalence, corrected response units (RUantigen-RUreference) bound to each flow channel were compared after 5 minutes of serum exposure; more RU indicated greater antibody binding and therefore, a higher titer. […] Antibodies to rhamnose were further assessed with ELISA assays using immobilized rhamnose-BSA.

[8] = plus CD55 and CD59 blocking antibodies 10 μg/mL each

Compound: CCCCCC/C=C\CCCCCCCC(=O)OC[C@H](COP(=O)(O)OCCNCCCCO[C@@H]1OC(C)[C@H](O)[C@H](O)C1O)OC(=O)CCCCCCC/C=C\CCCCCC (some centres unmarked) [Compound 4, Rha1-DPoPE]
complement activation (C4d staining) [1]: activated complement

Compound: CCCCCC/C=C\CCCCCCCC(=O)OC[C@H](COP(=O)(O)OCCN(CCCCO[C@@H]1OC(C)[C@H](O)[C@H](O)C1O)CCCCO[C@@H]1OC(C)[C@H](O)[C@H](O)C1O)OC(=O)CCCCCCC/C=C\CCCCCC (some centres unmarked) [Compound 51, Rha2-DPoPE]
complement activation (C4d staining) [1]: more efficient
% viability ([2]; CD55 and CD59 functional): large decrease in viability
% viability [2, 8]: significantly amplified
51Cr release (cytotoxicity, CDC) ([3]; serum alone, FIG. 10 left bar): Cr-51 was released
51Cr release (cytotoxicity) ([3]; serum with PBMCs added, FIG. 10 right bar): cytotoxicity increased

Compound: CC(C)CCC[C@@H](C)[C@H]1CC[C@H]2[C@@H]3CC=C4C[C@H](OC(=O)NCCOCCOCCNC(=O)c5cccc(-c6c7ccc(=N)c(S(=O)(=O)O)c-7oc7c(S(=O)(=O)O)c(N)ccc67)c5C(=O)O)CC[C@]4(C)[C@H]3CC[C@]12C [Compound 101]
insertion into cell membranes, copy numbers (fluorophores per cell) [4]: around 3×10^6

Compound: O=[N+]([O-])c1ccc(O)c([N+](=O)[O-])c1 [DNP, 2,4-dinitrophenol]
loss of binding signal (response units) of antigen-antibody complex over time [5]: signal loss was greater

Compound: CCCCCCCCCCCCCCCC(=O)OC[C@H](COP(=O)(O)OCCNC(=O)CCCCCNc1ccc([N+](=O)[O-])cc1[N+](=O)[O-])OC(=O)CCCCCCCCCCCCCCC.N [DNP-lipid]
anti-DNP staining shift (membrane insertion, antigen head group accessibility) [6]: positive shift

Compound: CCCCCC/C=C\CCCCCCCC(=O)OC[C@H](COP(=O)(O)OCCN)OC(=O)CCCCCCC/C=C\CCCCCC [DPoPE, 1,2-dipalmitoleoyl-sn-glycero-3-phosphoethanolamine]
% viability ([2]; CD55 and CD59 functional): remain equally viable
% viability [2, 8]: slight negative impact on cell survival

loss of binding signal (response units) of antigen-antibody complex over time [5]: signal loss was greater
Compound: OC[C@H]1O[C@H](O[C@H]2[C@@H](O)[C@@H](CO)OC(O)[C@@H]2O)[C@H](O)[C@@H](O)[C@H]1O (stereo partly drawn) [αGal, Gal-α-1,3-Gal]

Compound: rhamnose
antibody prevalence (corrected response units bound, RUantigen-RUreference) [7]: more prevalent than those recognizing αGal in all cases; also recorded: equivalent or better to those recognizing DNP in most cases
loss of binding signal (response units) of antigen-antibody complex over time [5]: affinity advantage over those of both αGal and DNP
